We go through three compounds from article PMC8171062, “Crystallographic fragment screening-based study of a novel FAD-dependent oxidoreductase from Chaetomium thermophilum” (Acta Crystallographica. Section D, Structural Biology, 2021).

Structures are written as SMILES.

Common to all, as to test: X-ray crystal structure, […] A, soaking
What all share (format): binding

In assay [1] the target is T1, CtFDO (CtFDOdegl) (Thermochaetoides thermophila, UniProt G0SAW6).
T1 construct: gene CTHT_0048040; secreted from Aspergillus oryzae, no tag mentioned; signal peptide (21), next 20 N-terminal and 8 C-terminal residues absent; 595 residues by LC-MS/MS; endoglycosidase F1 deglycosylated; about 68 kDa; monomer
Particulars: crystals at pH 5.5; catalytic site; occupancy 1.0; formic acid in S1.

Assay [2] has as its target T1, CtFDO (CtFDOdegl). The settings on record: 20 mM MgCl2; two molecules per chain, subsites S1 and S3; occupancy 0.7-0.8; formic acid in catalytic site.
Assay [3] concerns the target T1, CtFDO (CtFDOdegl). Particulars: crystals at pH 5.5; thiophene in subsite S2, aliphatic moiety in catalytic site; occupancy 0.9; formic acid in S1.

T1 sequence (G0SAW6 entry or part of it): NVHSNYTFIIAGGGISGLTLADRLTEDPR
T1 sequence (G0SAW6 entry or part of it): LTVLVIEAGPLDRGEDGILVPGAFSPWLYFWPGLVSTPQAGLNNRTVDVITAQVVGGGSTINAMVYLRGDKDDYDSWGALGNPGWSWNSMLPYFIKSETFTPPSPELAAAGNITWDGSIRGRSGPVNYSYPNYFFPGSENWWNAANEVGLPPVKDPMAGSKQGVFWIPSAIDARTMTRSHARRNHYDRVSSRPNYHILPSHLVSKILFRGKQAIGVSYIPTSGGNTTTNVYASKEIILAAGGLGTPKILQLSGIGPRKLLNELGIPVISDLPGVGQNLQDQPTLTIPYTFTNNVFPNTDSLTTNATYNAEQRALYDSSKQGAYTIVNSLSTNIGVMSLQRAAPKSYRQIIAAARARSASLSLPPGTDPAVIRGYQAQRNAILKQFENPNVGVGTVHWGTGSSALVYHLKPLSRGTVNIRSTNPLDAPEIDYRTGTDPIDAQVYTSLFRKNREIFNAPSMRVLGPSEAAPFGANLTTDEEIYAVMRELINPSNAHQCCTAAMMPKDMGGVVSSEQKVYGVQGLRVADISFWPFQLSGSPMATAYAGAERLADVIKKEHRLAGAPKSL

For the compound `COC(=O)c1ccc(CN)cc1` [MAMB, methyl-4-(aminomethyl)benzoate], at CtFDO (CtFDOdegl) [1], the “X-ray crystal structure, 2.22 A, soaking” value is listed as “CtFDOdegl binds one MAMB molecule in the CS”. On to `O=[N+]([O-])c1ccc(O)c(O)c1` [4NC, 4-nitrocatechol], for which the “X-ray crystal structure, 1.26 A, soaking” value on CtFDO (CtFDOdegl) [2] was “both CtFDOdegl chains bind two molecules of 4NC”. As for `C[C@H](NC(=O)CCC(=O)c1cccs1)c1cccnc1` [PESB, 4-oxo-N-[(1S)-1-(pyridin-3-yl)ethyl]-4-(thiophen-2-yl)butanamide], the “X-ray crystal structure, 1.60 A, soaking” value at CtFDO (CtFDOdegl) [3] is listed as “each protein chain binds one PESB molecule”.
